Reference: patent US20160287617A1 (priority 2013, published 2016)
Marks after values point to notes of the source that are not given here.

Assays:
Set-up in all cases: species or system broiler chickens
Conditions in all cases: in vivo
T-2 toxin in chickens [1] = tested on: T-2 toxin in chickens
Newcastle = tested on: Newcastle
T-2 toxin in chickens [2] = tested on: T-2 toxin in chickens; remark: listed apart in the source
T-2 toxin in chickens [3] = tested on: T-2 toxin in chickens; remark: listed apart in the source
T-2 toxin in chickens [4] = tested on: T-2 toxin in chickens; remark: listed apart in the source
T-2 toxin in chickens [5] = tested on: T-2 toxin in chickens; remark: listed apart in the source

Substance: T-2 toxin
- Feed consumption, medians ± standard error (T-2 toxin in chickens [1]): 2035 ± 44.3 ^a
- Feed conversion, medians ± standard error (T-2 toxin in chickens [1]): 1.45 ± 0.035 ^b
- Weight gain, medians ± standard error (T-2 toxin in chickens [1]): 1399 ± 29.46 ^b
- Weight in g, Final (28 days), medians ± standard error (T-2 toxin in chickens [1]): 1442 ± 29.49 ^b g
- Weight in g, Initial, medians ± standard error (T-2 toxin in chickens [1]): 43 ± 0.43 ^a g
- Xantophylls (oral solution), medians ± standard error (T-2 toxin in chickens [1]; po): 8.92 ± 0.70 ^b mg/L
- Inhibition of Newcastle hemagglutination (18 days after vaccination), medians ± standard error (Newcastle): 8.717 ± 0.29 ^b Log2
- Gizzard: loss of continuity, ulcer activity (moderate multifocal ulcerative ventriculitis) (T-2 toxin in chickens [2]): 7/12
- Gizzard: scant erosions in the recovery zone (discrete, multifocal erosions) (T-2 toxin in chickens [2]): 5/12
- Kidney: lymphocyte clusters in the interstitial space (T-2 toxin in chickens [2]): 4/12
- Larynx: no significant changes (T-2 toxin in chickens [2]): 4/12
- Liver: areas of extramedullary hematopoiesis (T-2 toxin in chickens [2]): 1/12
- Liver: multifocal lymphocyte clusters around portal cavities and in the parenchymal (lymphocytic colangiohepatitis) (T-2 toxin in chickens [2]): 8/12
- Liver: scant fat vacuoles/cells in hepatocyte cytoplasm (esteatosis) (T-2 toxin in chickens [2]): 3/12
- Proventriculus: hyperplasia / cluster of associated lymphoid tissue (T-2 toxin in chickens [2]): 1/12
- Proventriculus: no significant changes (T-2 toxin in chickens [2]): 11/12
- Spleen, thymus: no significant changes (T-2 toxin in chickens [2]): 12/12
- Tongue: dense plates above epithelium lining with lymphocyte and macrophage clusters (estomatitis and erosive/necrotic glositis) (T-2 toxin in chickens [2]): 8/12
- Tongue: no significant changes (animals/examined) (T-2 toxin in chickens [2]): 4/12
- Ash, medians ± standard error (T-2 toxin in chickens [3]): 56.37 ± 0.32 ^a %
- Calcium, medians ± standard error (T-2 toxin in chickens [3]): 20.43 ± 0.19 ^a %
- Manganesium, medians ± standard error (T-2 toxin in chickens [3]): 6.7 ± 0.21 ^a mg/kg
- Phosphorous, medians ± standard error (T-2 toxin in chickens [3]): 9.72 ± 0.07 ^a %
- Zinc, medians ± standard error (T-2 toxin in chickens [3]): 247 ± 4.37 ^a mg/kg
- Relative weight of bursa of Fabricius (%), medians ± standard error (T-2 toxin in chickens [4]): 0.248 ± 0.016 ^a %
- Relative weight of kidney (%), medians ± standard error (T-2 toxin in chickens [4]): 0.809 ± 0.032 ^a %
- Relative weight of liver (%), medians ± standard error (T-2 toxin in chickens [4]): 2.57 ± 0.104 ^a %
- Relative weight of spleen (%), medians ± standard error (T-2 toxin in chickens [4]): 0.094 ± 0.009 ^a %
- Relative weight of thymus (%), medians ± standard error (T-2 toxin in chickens [4]): 0.282 ± 0.020 ^a %
- Granulocytes (segmented neutrophils and band neutrophils), medians ± standard error (T-2 toxin in chickens [5]): 0.9 ± 0.17 ^a 10^3/μL
- Hematocrit, medians ± standard error (T-2 toxin in chickens [5]): 31.8 ± 1.56 ^a %
- Hemoglobin, medians ± standard error (T-2 toxin in chickens [5]): 12.1 ± 0.46 ^a g/dL
- Lymphocytes, medians ± standard error (T-2 toxin in chickens [5]): 58.4 ± 3.32 ^b 10^3/μL
- Median cell count (monocytes, basophils and eosinophils), medians ± standard error (T-2 toxin in chickens [5]): 5.8 ± 0.76 ^a 10^3/μL
- Platelets, medians ± standard error (T-2 toxin in chickens [5]): 31 ± 4.95 ^a 10^3/μL
- Red blood cells (erythrocytes), medians ± standard error (T-2 toxin in chickens [5]): 2.46 ± 0.12 ^a 10^6/μL
- White blood cells (Leukocytes), medians ± standard error (T-2 toxin in chickens [5]): 65.10 ± 4.07 ^b 10^3/μL
